Results on 44 compounds are retold here after patent US20050245527A1, “Nitrogen containing heterocyclic compounds and medicines containing the same” (priority 2002, published 2005).

SMILES strings stand for the structures.

The subject of the assay is sodium channels. Format: cell-based. The conditions noted are these: read-out: IC50 (μM), sodium channel-inhibiting activity; rat fetal cultured hippocampal neurons, SBFI fluorescence in the presence of 4-aminopyridine, 5 minutes after addition, 1 μM tetrodotoxin = 100%.
As for `C[C@@H]1CN(Cc2ncc[nH]c2=O)CC[C@H]1C(=O)Cc1ccccc1F` (relative stereo) [Example 366, trans-3-[4-[2-(2-Fluorophenyl)acetyl]-3-methylpiperidino]methyl-1H-pyrazin-2-one], the 50% inhibitory concentration (IC50) (commonly the concentration that gives 50% inhibition) turned out to be 4.2 µM.

As for `C[C@H]1C[C@H](C(=O)Cc2ccccc2F)CCN1Cc1ncc[nH]c1=O` (relative stereo) [Example 414, trans-3-[4-[2-(2-Fluorophenyl)acetyl]-2-methylpiperidino]methyl-1H-pyrazin-2-one], the half-inhibitory concentration (IC50) amounted to 7.9 µM.

As to `O=c1cncc(CCN2CCCC(COc3ccccc3F)C2)[nH]1` (centres unmarked) [Example 117, 6-[2-[3-(2-Fluorophenoxymethyl)piperidino]ethyl]-1H-pyrazin-2-one], the IC50 stood at 4.4 µM.

As to `O=c1cncc(CCN2CCC(O)(COc3ccccc3F)CC2)[nH]1` [Example 118, 6-[2-[4-Hydroxy-4-(2-fluorophenoxymethyl)piperidino]ethyl]-1H-pyrazin-2-one], the IC50 was determined as 3.1 µM.

On to `O=c1cncc(CCN2CCC3(CC2)CC(Oc2ccccc2F)C3)[nH]1` [Example 119, 6-[2-[2-(2-Fluorophenoxy)-7-azaspiro[3.5]non-7-yl]ethyl]-1H-pyrazin-2-one], for which the IC50 worked out at 8.4 µM.

With `O=c1cncc(CCN2CCC(O)(C#Cc3ccccc3F)CC2)[nH]1` [Example 120, 6-[2-[4-Hydroxy-4-[(2-fluorophenyl)ethynyl]piperidino]ethyl]-1H-pyrazin-2-one], the 50% inhibitory concentration (IC50) turned out to be 8.5 µM.

In the case of `Cc1ccccc1OCC1(C#N)CCN(Cc2ncc[nH]c2=O)CC1` [Example 121, 1-(3-Oxo-3,4-dihydro-2-pyrazinylmethyl)-4-(2-methylphenoxymethyl)piperidine-4-carbonitrile], the IC50 turned out to be 5.7 µM.

As to `Cc1ccccc1CCC1(O)CCN(Cc2ccc[nH]c2=O)CC1` [Example 125, 3-[4-Hydroxy-4-[2-(2-methylphenyl)ethyl]piperidino]methyl-1H-pyridin-2-one], the concentration for half-maximal inhibition (IC50) worked out at 5 µM.

As for `O=c1[nH]ccnc1CN1CCC(CC(O)c2ccccc2F)CC1` (centres unmarked) [Example 144, 3-[4-[2-(2-Fluorophenyl)-2-hydroxyethyl]piperidino]methyl-1H-pyrazin-2-one], the concentration for half-maximal inhibition (IC50) was found to be 5.8 µM.

As for `COc1ccccc1CCC1CCCN(Cc2ncc[nH]c2=O)C1` (centres unmarked) [Example 155, 3-[3-[2-(2-Methoxyphenyl)ethyl]piperidino]methyl-1H-pyrazin-2-one], the concentration for half-maximal inhibition (IC50) was 3.5 µM.

As to `O=c1[nH]ccnc1CN1CCC(CCOc2ccccc2F)CC1` [Example 159, 3-[4-[2-(2-Fluorophenoxy)ethyl]piperidino]methyl-1H-pyrazin-2-one], the IC50 came out at 9.4 µM.

Regarding `COc1cccc(OCC2CCN(Cc3ncc[nH]c3=O)CC2)c1` [Example 161, 3-[4-(3-Methoxyphenoxymethyl)piperidino]methyl-1H-pyrazin-2-one], the IC50 is 3.5 µM.

As for `CCOc1ccccc1OCC1CCN(Cc2ncc[nH]c2=O)CC1` [Example 165, 3-[4-(2-Ethoxyphenoxymethyl)piperidino]methyl-1H-pyrazin-2-one], the half-inhibitory concentration (IC50) worked out at 8.4 µM.

As for `N#Cc1ccccc1OCC1CCN(Cc2ncc[nH]c2=O)CC1` [Example 166, 3-[4-(2-Cyanophenoxymethyl)piperidino]methyl-1H-pyrazin-2-one], the IC50 turned out to be 8.7 µM.

As to `O=c1[nH]ccnc1CN1CCC(/C=C/c2sccc2F)CC1` [Example 173, (E)-3-[4-[2-(3-Fluoro-2-thienyl)vinyl]piperidino]methyl-1H-pyrazin-2-one], the IC50 came to 4.3 µM.

As to `CC(Oc1ccccc1F)C1CCN(Cc2ncc[nH]c2=O)CC1` (centres unmarked) [Example 175, 3-[4-[1-(2-Fluorophenoxy)ethyl]piperidino]methyl-1H-pyrazin-2-one], the IC50 was determined as 2.6 µM.

For the compound `Cc1ccc(-c2ccccc2)n1CC1CCN(Cc2ncc[nH]c2=O)CC1` [Example 182, 3-[4-(2-Methyl-5-phenylpyrrol-1-yl)methyl-piperidino]methyl-1H-pyrazin-2-one], the IC50 was 7.8 µM.

On to `O=c1[nH]ccnc1CN1CCC(c2nc(-c3ccc(F)cc3)no2)CC1` [Example 189, 3-[4-[3-(4-Fluorophenyl)-1,2,4-oxadiazol-5-yl]piperidino]methyl-1H-pyrazin-2-one], for which the IC50 stood at 7.2 µM.

Consider `COC(Cc1ccccc1F)C1CCN(Cc2ncc[nH]c2=O)CC1` (centres unmarked) [Example 190, 3-[4-[2-(2-Fluorophenyl)-1-methoxyethyl]piperidino]methyl-1H-pyrazin-2-one], for which the concentration for half-maximal inhibition (IC50) came to 1.2 µM.

For the compound `O=C(Cc1cccc(F)c1)C1CCN(Cc2ncc[nH]c2=O)CC1` [Example 191, 3-[4-[2-(3-Fluorophenyl)acetyl]piperidino]methyl-1H-pyrazin-2-one], the IC50 turned out to be 7.1 µM.

Turning to `O=C(Cc1cc(F)ccc1F)C1CCN(Cc2ncc[nH]c2=O)CC1` [Example 194, 3-[4-[2-(2,5-Difluorophenyl)acetyl]piperidino]methyl-1H-pyrazin-2-one], the half-inhibitory concentration (IC50) stood at 6.6 µM.

With `O=C(Cc1ccccc1)C1CCN(Cc2ncc[nH]c2=O)CC1` [Example 196, 3-[4-(2-Phenylacetyl)piperidino]methyl-1H-pyrazin-2-one], the IC50 is 6.2 µM.

In the case of `O=c1[nH]ccnc1CN1CCC(COc2ccc(F)cc2)CC1` [Example 199, 3-[4-(4-Fluorophenoxymethyl)piperidino]methyl-1H-pyrazin-2-one], the IC50 is 6.2 µM.

On to `O=c1[nH]ccnc1CN1CCC(C(Cc2ccccc2F)=NO)CC1` [Example 202, 3-[4-[1-Hydroxyimino-2-(2-fluorophenyl)ethyl]piperidino]methyl-1H-pyrazin-2-one], for which the IC50 was determined as 4.9 µM.

As for `CON=C(Cc1ccccc1F)C1CCN(Cc2ncc[nH]c2=O)CC1` [Example 203, 3-[4-[2-(2-Fluorophenyl)-1-(methoxyimino)ethyl]piperidino]methyl-1H-pyrazin-2-one], the IC50 was determined as 2.3 µM.

Consider `O=C(Cc1ccccc1F)C1CCN(Cc2nc3ccccc3[nH]c2=O)CC1` [Example 206, 3-[4-[2-(2-Fluorophenyl)acetyl]piperidino]methyl-1H-quinoxalin-2-one], for which the half-inhibitory concentration (IC50) is 5.2 µM.

Take `O=c1[nH]ccnc1CN1CCCCC1CCOc1ccccc1F` (centres unmarked) [Example 209, 3-[2-[2-(2-Fluorophenoxy)ethyl]piperidino]methyl-1H-pyrazin-2-one]: the IC50 amounted to 2.1 µM.

Take `O=c1[nH]ccnc1CN1CCC(O)(COc2ccccc2F)CC1` [Example 211, 3-[4-Hydroxy-4-(2-fluorophenoxymethyl)piperidino]methyl-1H-pyrazin-2-one]: the IC50 amounted to 8.2 µM.

In the case of `O=c1[nH]ccnc1CN1CCC(c2nc(-c3ccccc3)no2)CC1` [Example 215, 3-[4-(3-Phenyl-1,2,4-oxadiazol-5-yl)piperidino]methyl-1H-pyrazin-2-one], the IC50 was determined as 4.1 µM.

Turning to `CCOC(=O)C1(CCc2ccccc2)CCN(Cc2ncc[nH]c2=O)CC1` [Example 216, 3-[4-(Ethoxycarbonyl)-4-(2-phenylethyl)piperidino]methyl-1H-pyrazin-2-one], the half-maximal inhibitory concentration (IC50) turned out to be 3.2 µM.

On to `O=c1[nH]ccnc1CN1CCC(O)(C#Cc2ccccc2F)CC1` [Example 217, 3-[4-(2-Fluorophenyl)ethynyl-4-hydroxypiperidino]methyl-1H-pyrazin-2-one], for which the IC50 is 1.8 µM.

As to `Cc1ccccc1C#CC1(O)CCN(Cc2ncc[nH]c2=O)CC1` [Example 218, 3-[4-(2-Methylphenyl)ethynyl-4-hydroxypiperidino]methyl-1H-pyrazin-2-one], the IC50 is 3.6 µM.

With `O=c1[nH]ccnc1CN1CCC(CO)(CCc2ccccc2)CC1` [Example 219, 3-[4-Hydroxymethyl-4-(2-phenylethyl)piperidino]methyl-1H-pyrazin-2-one], the IC50 came out at 1.6 µM.

For the compound `N#CC1(COc2ccccc2F)CCN(Cc2ncc[nH]c2=O)CC1` [Example 221, 3-[4-Cyano-4-(2-fluorophenoxymethyl)piperidino]methyl-1H-pyrazin-2-one], the IC50 was found to be 4.9 µM.

Consider `O=c1[nH]ccnc1CN1CCC2(CC1)CC(Oc1ccccc1F)C2` [Example 226, 3-[2-(2-Fluorophenoxy)-7-azaspiro[3.5]non-7-yl]methyl-1H-pyrazin-2-one], for which the concentration for half-maximal inhibition (IC50) was determined as 4.5 µM.

In the case of `O=c1cncc(CCN2CCC(COc3cccc(F)c3)CC2)[nH]1` [Example 238, 6-[2-[4-(3-Fluorophenoxymethyl)piperidino]ethyl]-1H-pyrazin-2-one], the IC50 turned out to be 5.6 µM.

For `COc1ccccc1OCC1CCN(CCc2cncc(=O)[nH]2)CC1` [Example 240, 6-[2-[4-(2-Methoxyphenoxymethyl)piperidino]ethyl]-1H-pyrazin-2-one], the IC50 is 6.4 µM.

As for `O=c1cncc(CCN2CCC(COc3cccc(F)c3F)CC2)[nH]1` [Example 242, 6-[2-[4-(2,3-Difluorophenoxymethyl)piperidino]ethyl]-1H-pyrazin-2-one], the IC50 was 6.2 µM.

Regarding `O=c1cncc(CCN2CCC(C#Cc3ccccc3F)CC2)[nH]1` [Example 244, 6-[2-[4-[(2-Fluorophenyl)ethynyl]piperidino]ethyl]-1H-pyrazin-2-one], the half-inhibitory concentration (IC50) worked out at 3.1 µM.

For `O=c1cncc(CCN2CCC(COc3ccccc3)CC2)[nH]1` [Example 245, 6-[2-[4-(Phenoxymethyl)piperidino]ethyl]-1H-pyrazin-2-one], the IC50 amounted to 4.4 µM.

As for `Cn1c(CCN2CCC(COc3ccccc3F)CC2)cncc1=O` [Example 249, 6-[2-[4-(2-Fluorophenoxymethyl)piperidino]ethyl]-1-methyl-1H-pyrazin-2-one], the half-inhibitory concentration (IC50) came out at 3.2 µM.

For the compound `CCOC(=O)C1(CCc2ccccc2)CCN(Cc2ccc[nH]c2=O)CC1` [Example 255, 3-[4-(Ethoxycarbonyl)-4-(2-phenylethyl)piperidino]methyl-1H-pyridin-2-one], the IC50 worked out at 3.1 µM.

For `O=c1[nH]ccnc1CN1CCC(CSc2ccccc2F)CC1` [Example 336, 3-[4-[(2-Fluorophenylthio)methyl]piperidino]methyl-1H-pyrazin-2-one], the IC50 was 4.7 µM.

For the compound `O=c1[nH]ccnc1CN1CCC(C[S+]([O-])c2ccccc2F)CC1` (centres unmarked) [Example 337, 3-[4-[(2-Fluorophenylsulfinyl)methyl]piperidino]methyl-1H-pyrazin-2-one], the IC50 is 6.5 µM.
